Experimental data published in paper PMC9085577, “Discovery of a Potent and Orally Active Dual GPBAR1/CysLT1R Modulator for the Treatment of Metabolic Fatty Liver Disease” (Frontiers in Pharmacology, 2022).
Converted amounts (≈) assume the structure as drawn.

What was measured:
[1] = Aqueous solubility in PBS pH 7.4 by LC-MS/MS; format: physicochemical
Procedure: Solubility. Ten microliters of a 10 mM solution of tested compounds were diluted either in 490 µL of PBS pH 7.4 or MeOH and agitated for 24 h at 250 rpm. The obtained solutions were first centrifuged for 5 min at 4,000 rpm and then further diluted adding 10 μL of each sample to 490 µL of MeOH. Samples were analyzed by LC-MS/MS and the ratio of mass signal area obtained in PBS and in organic solvent was then measured and used to determine solubility.

LogD octanol/PBS pH 7.4 = format: physicochemical
Procedure: LogD. Measurements 40 µL of selected compounds were dissolved in 1960 µL of PBS pH 7.4/Octanol. Samples were shacked for 2 h at rt, 10 µL of each phase were withdrawn, diluted in 490 µL of MeOH, and analyzed by LC-MSMS. The ratio of mass signal area obtained in octanol and PBS at pH 7.4 and in organic solvent was employed to calculate LogD.

[2] = Metabolic stability in liver S9 fraction; format: in vitro ADME
Procedure: Metabolic Stability. All compounds were tested at the final concentration of 1 µM in a 50 mM potassium phosphate buffer (pH 7.4) containing 1% DMSO as vehicle. For microsomes assay, the incubation mixtures contained 0.15 mg of Human liver microsomes (Sigma-Aldrich, St. Louis, MO, United States), 5 mM MgCl2, 1 mM NADPH, 5 mM glucose 6-phosphate, 0.4 U mL^−1 glucose 6-phosphate dehydrogenase. For S9 fraction analysis, the buffer contained 0.15 mg of S9 proteins (Sigma-Aldrich, St. Louis, MO, United States), 0.3 mM NADPH, 5.6 mM glucose-6-phosphate, 0.6 units/mL glucose-6-phosphate dehydrogenase, 5.8 mM UDP-glucuronic acid, 0.05 mM acetyl-CoA, 0.5 mM dithiothreitol, 0.5 mM 3′-phosphoadenosine 5′-phosphosulfate, 1 mM glutathione, 0.2 mM acetyl carnitine, 4 units/mL carnitine acetyl transferase, 0.5 mM glycine, and 0.5 mM taurine.
Samples were kept at 37°C and aliquots were removed at 0, 5, 15, 30, 45, 60, 90, 120, 150 min after protein additions. The reaction was stopped by adding 200 µL of ice-cold acetonitrile to withdrawn aliquots. After 2 h, samples were centrifuged for 10 min at 10,000 rpm, and supernatants were subjected to LC-MS/MS analysis. […]
In vitro intrinsic clearance (Clint expressed as µL/min/mg) was calculated according to the following formula: Clint = Vx 0.693/t1/2 were V = volume of reaction (µL)/protein in the incubation (mg). […]

[3] = test system: C57BL/6J male mice fed HFD-F; assay: HFD-F mouse model of NAFLD/NASH (body weight, OGTT, biochemistry, histopathology, adipose tissues); format: in vivo; settings: 30 mg/kg/day by gavage
Description: C57BL/6J male mice were fed a high fat diet (HFD) containing 59 KJ% fat plus 1% cholesterol, w/o sugar (ssniff ® EF R/M acc. D12330 mod. 22,7 ME/kg) and fructose (HFD-F) in drinking water (42 g/L), or normal chow diet for 61 days. Food intake was estimated as the difference of weight between the offered and the remnant amount of food at 3-days intervals. The food was provided as pressed pellets and the residual spillage was not considered. After 7 days, HFD-F mice were randomized to receive HFD-F alone or in combination with compound 2 (30 mg/kg/day) by gavage until the end of the experiment. Doses of each agent were chosen according to previously published data. Mice were housed under controlled temperature (22°C) and photoperiods (12:12-h light/dark cycle), allowed unrestricted access to standard mouse chow and tap water. The experimental protocol was approved by the Animal Care and Use Committee of the University of Perugia and by the Italian Minister of Health and Istituto Superiore di Sanità (Italy) and was in agreement with the European guidelines for use of experimental animals (permission n. 583/2017-PR). The general health of the animals was monitored daily by the Veterinarian in the animal facility. At the day of sacrifice, fed mice were deeply anesthetized with a mixture of tiletamine hypochloride and zolazepam hypochloride/xylazine at a dose of 50/5 mg/kg and sacrificed before 12 a.m.
Body weight and body length (nose-to-anus or nose–anus length) were measured in anesthetized mice at the time of sacrifice and were used to calculate the body mass index (BMI) (=body weight (g)/length^2 (cm^2)) and the Lee index (=cube root of body weight (g)/nose-to-anus length (cm)).
AST, ALT, total- and HDL-cholesterol, and triglycerides plasmatic levels were quantified using an automated clinical chemistry analyzer (Cobas, Roche).
After 8 weeks of HFD-F mice were fasted overnight and orally administered glucose (1.5 g/kg body weight) for OGTT. The blood glucose concentrations were measured at 0, 15, 30, 60, 90, and 120 min after feeding or injection using a portable glucose meter (Accu-Check Go, Roche).
Temperature of brown adipose tissue (BAT) was recorded through the study using a noninvasive technology. Briefly, mice were maintained at 25°C and the thermal images were taken by a FLIR E6 thermal imaging camera (FLIR System, Wilsonville, Oregon) and the surface temperature quantified by the FLIR Tools.
For histological examination, portions of the right and left liver lobes were fixed in 10% formalin, embedded in paraffin, sectioned and stained with Sirius red and/or Hematoxylin/Eosin (H&E), for morphometric analysis ([Fiorucci et al., 2004]). NASH severity (steatosis, hepatocytes ballooning, lobular inflammation, and portal inflammation) was scored in H&E-stained cross sections using an adapted grading system of human NASH as described previously ([Carino et al., 2017b]).

- Solubility [1]: good
- solubility at 24 h ([1]; PBS pH 7.4): 66 µM (≈ 23.5 µg/mL)
- LogD (LogD octanol/PBS pH 7.4): proper
- logD at 2 h (LogD octanol/PBS pH 7.4; octanol/PBS): 2
- microsomal CLint at 1 µM ([2]; pH 7.4): 6 µL/min/mg
- half-life at 1 µM ([2]; pH 7.4, read-out: S9 fraction t1/2): 6.42 h
Compound: O=C(O)c1cccc(-c2ccc(OCc3ccc4ccccc4n3)cc2)c1 [Compound 2, 4'-(quinolin-2-ylmethoxy)-[1,1′-biphenyl]-3-carboxylic acid]
- ALT plasma levels [3]: reduced
- AST plasma levels [3]: reduced
- body mass index (BMI) [3]: reduced
- eWAT weight [3]: reduced
- insulin sensitivity (OGTT) [3]: increased
- liver fibrosis and collagen deposition (Sirius red) [3]: robustly attenuated
- liver steatosis and hepatocytes ballooning (H&E) [3]: highly effective in reversing these features
- liver weight [3]: reversed the effect exerted by the diet
- proatherogenic lipid profile [3]: partially reversed
- ratio of BAT weight/body weight [3]: reduced
- ratio of eWAT weight/body weight [3]: reduced these changes
- volume of BAT [3]: reduced
- body weight gain ([3]; 54 days): reduced
